Laboratory results as given in paper PMC9000482, “Inhibition of Aldose Reductase by Ginsenoside Derivatives via a Specific Structure Activity Relationship with Kinetics Mechanism and Molecular Docking Study” (Molecules, 2022).
Where two headings read alike, the source gives them in different places. Marks after values point to notes of the source that are not given here.

Tests used:
[1] = system: sorbitol accumulation in rat lens; experiment: Lens culture and intracellular sorbitol measurement (ex vivo); assay type: cell-based, Sprague-Dawley rats; details: 25 mM glucose, 6 days, sample 5 μg/mL, mean ± SD (n = 3); for inhibition at 5 µg/mL: 144 h
[2] = target: T1, human recombinant aldose reductase (HRAR) (Homo sapiens, UniProt P15121); experiment: HRAR inhibition assay (DL-glyceraldehyde substrate); assay type: biochemical
T1 construct: purchased Wako Chemicals (Osaka, Japan)
Procedure: HRAR inhibition was studied according to Nishimura et al.. AR action was studied by measuring the reduction in NADPH absorption at 340 nm over a period of 1 min on a UV/visible spectrophotometer (Ultrospec®2100pro, Biochrom, Holliston, MA, USA). For HRAR inhibition, the HRAR enzyme (0.4 units), was used in all enzyme inhibition evaluations. […] The inhibition percentage (%) was measured as designated in the RLAR assay. The DA sample/min value characterizes the decrease in absorbance for 1 min with the test samples and substrate. The ability of each sample to inhibit HRAR was observed as an IC50 value (µM) and measured from the log-dose inhibition curve.

[3] = target: T1, human recombinant aldose reductase (HRAR); experiment: Enzyme kinetics of HRAR inhibition (Lineweaver-Burk and Dixon plots); assay type: biochemical; details: for HRAR Mode of Inhibition: Lineweaver-Burk plot
Procedure: (§1) Enzyme inhibition with different concentrations ([…]) was assessed by monitoring the effects of different concentrations of the substrate. The following concentrations of test ginsenosides were used in the RLAR kinetics analysis: 0, 2, 10, and 50 µM for protopanaxadiol; 0, 0.5, 2.5, and 10 µM for (20S) ginsenoside Rg3; 0, 0.5, 2.5, and 10 µM for (20R) ginsenoside Rg3; 0, 0.1, 0.5, and 2.5 µM for ginsenoside Rh2; 0, 2, 10, and 50 µM for protopanaxatriol; 0, 0.8, 4, and 20 µM for ginsenoside Rf; 0, 0.8, 4, and 20 µM for (20S) ginsenoside Rg2, and 0, 0.5, 2.5, and 10 µM for ginsenoside Rh1. Using Lineweaver-Burk double reciprocal plots, the inhibition type was determined using various concentrations of DL-glyceraldehyde (5, 10, and 20 mM) for HRAR as a substrate in the presence of different concentrations of the active test ginsenosides. The concentrations of test ginsenosides in the HRAR kinetics analysis were as follows: 0, 0.1, 0.5, and 2.5 µM for protopanaxadiol; 0, 0.5, 2, and 10 µM for (20S) ginsenoside Rg3; 0, 1, 5, and 20 µM for (20R) ginsenoside Rg3; 0, 0.5, 2.5, and 10 µM for ginsenoside Rh2; 0, 0.1, 0.5, and 2.5 µM for compound K; 0, 1, 5, and 10 µM for protopanaxatriol; 0, 0.5, 4, and 20 µM for (20R) ginsenoside Rg2, and 0, 0.2, 2, and 5 µM for ginsenoside Rh1. The Dixon plot is a graphical method [1/enzyme velocity (1/V)] against inhibitor concentration [I] used to determine the type of enzyme inhibition; it was used to identify the dissociation or inhibition constant (Ki) for the enzyme-inhibitor complex. Dixon plots (single reciprocal plots) for RLAR and HRAR inhibition were obtained in the presence of 100, 50, and 10 mM RLAR, and 20, 10, and 5 mM HRAR DL-glyceraldehyde substrate. Thus, the type of enzyme inhibition was determined by interpreting the Lineweaver-Burk plots, and the inhibition constants (Ki) were determined by interpreting the Dixon plots.

[4] = target: T2, rat lens aldose reductase (RLAR) (Rattus norvegicus, UniProt P07943); experiment: RLAR inhibitory activity assay (rat lens homogenate, DL-glyceraldehyde substrate); assay type: biochemical
T2 construct: from tissue; host or cells: lens of Sprague-Dawley rats (supernatant of homogenate)
Procedure: A rat lens homogenate was prepared with minor modifications according to the method reported by Hayman et al.. Briefly, the lenses were removed from the eyes of Sprague-Dawley rats weighing 250–280 g. They were homogenized in sodium phosphate buffer (pH 6.2) that was prepared with dibasic sodium phosphate (Na2HPO4∙H2O, 0.66 g) and monobasic sodium phosphate (NaH2PO4∙H2O, 1.27 g) in 100 mL of double-distilled H2O. The homogenate was clarified by centrifugation at 10,000 rpm at 4 °C for 20 min and the resultant supernatant was frozen until use. A crude AR homogenate with a specific activity of 6.5 U/mg was used in all enzyme inhibition evaluations. The reaction solution consisted of 620 µL of 100 mM sodium phosphate buffer (pH 6.2), 90 µL of AR homogenate, 90 µL of 1.6 mM NADPH, and 9 µL of sample, while the substrate included 90 µL of 50 mM DL-glyceraldehyde. […] AR activity was determined by measuring the decrease in NADPH absorption at 340 nm over a 4 min period on an Ultrospec®2100pro UV/Visible spectrophotometer. SWIFT II Applications software (Amersham Biosciences, NJ, USA) was used for all data analyses. The inhibition percentage (%) was calculated as follows in Equation (1):[1 − (∆Asample/min − ∆Ablank/min)/(∆Acontrol/min − ∆Ablank/min)] × 100(1) in which ∆Asample/min represents the test sample and substrate’s reduction in absorbance over 4 min, and ∆A control/min represents the same reduction in absorbance, but with 100% DMSO (dimethyl sulfoxide) rather than the test sample.

[5] = target: T2, rat lens aldose reductase (RLAR); experiment: Enzyme kinetics of RLAR inhibition (Lineweaver-Burk and Dixon plots); assay type: biochemical; details: for RLAR Mode of Inhibition: Lineweaver-Burk plot
Procedure: as §1

[6] = substrate DL-glyceraldehyde, mean ± S.E.M. of triplicate experiments, read-out: HRAR IC50
[7] = Dixon plots, single inhibition constant, read-out: HRAR Ki
[8] = rat lens homogenate, substrate DL-glyceraldehyde, mean ± S.E.M. of triplicate experiments, read-out: RLAR IC50
[9] = Dixon plots, read-out: RLAR Kic (binding constant of inhibitor with free enzyme)

| Structure (SMILES) | Sorbitol Content (mg)/Lens Wet Weight (g) [1] | IC50 [2, 6] [µM] | Ki [3, 7] [µM] | HRAR Mode of Inhibition [3] | IC50 [4, 8] [µM] | inhibition at 5 µg/mL ([1]; Rattus norvegicus) [%] | HRAR Kiu (binding constant of inhibitor with enzyme-substrate complex) ([3]; Dixon plots) [µM] | RLAR Mode of Inhibition [5] | IC50 [2] [µM] | Ki [3] [µM] | IC50 [4] [µM] | Ki [5] [µM] | other results |
| --- | --- | --- | --- | --- | --- | --- | --- | --- | --- | --- | --- | --- | --- |
| CC(C)=CCCC(C)(O)C1CCC2(C)C1C(O)CC1C3(C)CCC(O)C(C)(C)C3C(OC3OC(CO)C(O)C(O)C3OC3OC(C)C(O)C(O)C3O)CC12C [(20R) ginsenoside Rg2] | 0.83 ± 0.01 ^c mg/g | 13.7 ± 0.99 | 11.7 | Non-competitive | 29.4 ± 2.33 | – | – | – | – | – | – | – | Inhibition (%) of sorbitol accumulation in rat lens [1]: 51.74 ± 2.99 ^c % |
| CC(C)=CCCC(C)(O)C1CCC2(C)C1C(O)CC1C3(C)CCC(OC4OC(CO)C(O)C(O)C4OC4OC(CO)C(O)C(O)C4O)C(C)(C)C3CCC12C [(20R) ginsenoside Rg3] | 0.89 ± 0.01 ^c mg/g | – | – | Mixed type | – | 48.2 ± 3.99 | 17.99 | Competitive type | – | – | – | – | IC50 ([2]; read-out: HRAR IC50, substrate DL-glyceraldehyde, mean ± S.E.M. of triplicate experiments): 8.67 ± 0.87 µM; Ki ([3]; read-out: HRAR Kic (binding constant of inhibitor with free enzyme), Dixon plots): 11.1 µM; IC50 ([4]; read-out: RLAR IC50, rat lens homogenate, substrate DL-glyceraldehyde, mean ± S.E.M. of triplicate experiments): 4.28 ± 0.31 µM; RLAR Mode of Inhibition ([5]; listed as (20R) Rg3): competitive; Ki ([5]; read-out: RLAR Ki, Dixon plots, single inhibition constant): 3.69 µM |
| CC(C)=CCC[C@](C)(O)C1CC[C@]2(C)[C@@H]1[C@H](O)CC1[C@@]3(C)CC[C@H](O[C@@H]4O[C@H](CO)[C@@H](O)[C@H](O)[C@H]4O[C@@H]4O[C@H](CO)[C@@H](O)[C@H](O)[C@H]4O)C(C)(C)C3CC[C@]12C (stereo partly drawn) [(20S) ginsenoside Rg3] | 0.37 ± 0.01 ^b mg/g | – | – | Competitive type | – | 78.5 ± 4.27 | – | Competitive type | 9.92 ± 0.56 | 8.06 | 1.25 ± 0.28 | 1.97 | RLAR Mode of Inhibition ([5]; listed as (20S) Rg3): competitive |
| CC(C)=CCC[C@](C)(O[C@@H]1O[C@H](CO)[C@@H](O)[C@H](O)[C@H]1O)C1CC[C@]2(C)[C@@H]1[C@H](O)CC1[C@@]3(C)CC[C@H](O)C(C)(C)C3CC[C@]12C (stereo partly shown) [Compound K] | 0.46 ± 0.01 ^b mg/g | 2.23 ± 0.54 | 1.59 | Competitive type | 41.5 ± 3.99 | 73.2 ± 8.11 | – | – | – | – | – | – | HRAR Mode of Inhibition ([3]; listed as compound K): competitive |
| CC(C)=CCC[C@](C)(O)[C@H]1CC[C@]2(C)[C@@H]1[C@H](O)C[C@@H]1[C@@]3(C)CC[C@H](O)C(C)(C)[C@@H]3[C@@H](O[C@@H]3O[C@H](CO)[C@@H](O)[C@H](O)[C@H]3O[C@@H]3O[C@H](CO)[C@@H](O)[C@H](O)[C@H]3O)C[C@]12C [Ginsenoside Rf] | 0.28 ± 0.01 ^a mg/g | 19.5 ± 1.55 | – | – | 11.3 ± 1.49 | 83.7 ± 4.88 | – | Mixed type | – | – | – | – | RLAR Kiu (binding constant of inhibitor with enzyme-substrate complex) ([5]; Dixon plots): 18.60 µM; Ki [5, 9]: 11.2 µM |
| CC(C)=CCC[C@](C)(O)[C@H]1CC[C@]2(C)[C@@H]1[C@H](O)C[C@@H]1[C@@]3(C)CC[C@H](O)C(C)(C)[C@@H]3[C@@H](O[C@@H]3O[C@H](CO)[C@@H](O)[C@H](O)[C@H]3O)C[C@]12C [Ginsenoside Rh1] | 0.10 ± 0.01 ^a mg/g | – | – | Mixed type | – | – | 8.31 | Competitive type | 4.66 ± 0.34 | 3.4 | 7.28 ± 0.27 | 5.39 | inhibition at 5 µg/mL [1]: 94.2 ± 4.71%; RLAR Mode of Inhibition ([5]; listed as Rh1): competitive |
| CC(C)=CCC[C@](C)(O)[C@H]1CC[C@]2(C)[C@@H]1[C@H](O)C[C@@H]1[C@@]3(C)CC[C@H](O[C@@H]4O[C@H](CO)[C@@H](O)[C@H](O)[C@H]4O)C(C)(C)[C@@H]3CC[C@]12C [Ginsenoside Rh2] | 0.05 ± 0.01 ^a mg/g | – | – | Mixed type | – | – | 9.22 | Competitive type | 7.44 ± 0.55 | 3.63 | 0.67 ± 0.01 | 0.43 | inhibition at 5 µg/mL [1]: 97.1 ± 5.41%; RLAR Mode of Inhibition ([5]; listed as Rh2): competitive |
| CC(C)=CCC[C@](C)(O)C1CC[C@]2(C)[C@@H]1[C@H](O)CC1[C@@]3(C)CC[C@H](O)C(C)(C)C3CC[C@]12C (stereo partly shown) [Protopanaxadiol] | 0.06 ± 0.01 ^a mg/g | 0.36 ± 0.1 | 0.72 | Competitive type | 21.4 ± 2.45 | 96.5 ± 2.91 | – | Mixed type | – | – | – | – | HRAR Mode of Inhibition ([3]; listed as protopanaxadiol): competitive; RLAR Kiu (binding constant of inhibitor with enzyme-substrate complex) ([5]; Dixon plots): 37.39 µM; Ki [5, 9]: 18.8 µM |
| CC(C)=CCC[C@](C)(O)[C@H]1CC[C@]2(C)[C@@H]1[C@H](O)C[C@@H]1[C@@]3(C)CC[C@H](O)C(C)(C)[C@@H]3[C@@H](O)C[C@]12C [Protopanaxatriol] | 0.09 ± 0.01 ^a mg/g | 1.43 ± 0.14 | 2.61 | Competitive type | 27.9 ± 1.19 | 94.8 ± 3.46 | – | Non-competitive type | – | – | – | – | HRAR Mode of Inhibition ([3]; listed as protopanaxatriol): competitive; Ki ([5]; Dixon plots, single inhibition constant, read-out: RLAR Ki): 28.9 µM; RLAR Mode of Inhibition ([5]; listed as protopanaxatriol): non-competitive |
